Among the data in patent publication US9637485B2, “6,7-dihydrobenzo[a]quinolizin-2-one derivatives for the treatment and prophylaxis of hepatitis B virus infection” (Hoffmann-La Roche Inc., priority 2014, dated 2017) are IC50 values, retold here.

Like-named read-outs stand apart in the source and are kept apart here. A value given as a limit tells only on which side of the number the result lay.

The test system of one assay is HBV DNA. Nature of the assay: HBV DNA assay (real-time qPCR/TaqMan of extracellular HBV DNA, HepG2.2.15 cells). Type of assay: cell-based. The note with it: Hepatitis B virus, 144 h, supernatant six days after initial administration, qPCR, read-out: IC50 (Anti HBV DNA production activity). On the procedure: (§1) HepG2.2.15 cells (Acs et al. Proc Natl Acad Sci USA, 84, (1987), 4641-4), a constitutively HBV-expressing cell line were cultured in DMEM+Glutamax-I medium (Invitrogen, Carlsbad, Calif., USA, Catalog number: 11320082), supplemented with 10% fetal bovine serum (Invitrogen, Catalog number: 10099141) and G418 (Invitrogen, Catalog number: 10131027) at a final concentration of 200 mg/L and maintained in 5% CO2 at 37° C.
The assay employs real-time qPCR (TaqMan) to directly measure extracellular HBV DNA copy number. HepG2.2.15 cells were plated in 96-well microtiter plates. Only the interior wells were utilized to reduce “edge effects” observed during cell culture, the exterior wells were filled with complete medium to help minimize sample evaporation. On the following day, the HepG2.2.15 cells were washed and the medium was replaced with complete medium containing various concentrations of a test compound in triplicate. 3TC was used as the positive control, while media alone was added to cells as a negative control (virus control, VC). Three days later, the culture medium was replaced with fresh medium containing the appropriately diluted drug. […] Antiviral activity was calculated from the reduction in HBV DNA levels (IC50).

The next assay deals with HBsAg. The assay can be described thus: HBsAg assay (CLIA of secreted HBsAg in HepG2.2.15 culture supernatant). Type of assay: cell-based, HBV. The protocol:
as §1
HepG2.2.15 cells were seeded in duplicate into white, 96-well plates at 1.5×10^4 cells/well. The cells were treated with a three-fold serial dilution series of the compounds in DMSO. The final DMSO concentration in all wells was 1% and DMSO was used as no drug control.
The HBsAg chemiluminescence immunoassay (CLIA) kit (Autobio Diagnostics Co., Zhengzhou, China, Catalog number: CL0310-2) was used to measure the levels of secreted HBV antigens semi-quantitatively. For the detection 50 μL/well culture supernatant was used and HBsAg was quantified using HBsAg chemiluminescence immunoassay (CLIA) kit (Autobio Diagnostics Co., Zhengzhou, China, Catalog number: CL0310-2), 50 μl of the supernatant was transferred to the CLIA assay plate and 50 μL of enzyme conjugate reagent was added into each well. The plates were sealed and gently agitated for 1 hour at room temperature. The supernatant-enzyme-mixture was discarded and wells were washed 6 times with 300 μL of PBS. The residual liquid was removed by plating the CLIA plate right side down on absorbent tissue paper. 25 μL of substrates A and B were added to each well. Luminance was measured using a luminometer (Mithras LB 940 Multimode Microplate Reader) after 10 minutes incubation. Dose-response curves were generated and the IC50 value was extrapolated by using the E-WorkBook Suite (ID Business Solutions Ltd., Guildford, UK). The IC50 was defined as the compound concentration (or conditioned media log dilution) at which HBsAg secretion was reduced by 50% compared to the no drug control.

The mark [1] stands for this setting: read-out: IC50 (HBsAg secretion reduced by 50% compared to the no drug control), HepG2.2.15 cells, culture supernatant, HBsAg CLIA.
Where [2] appears, read: Hepatitis B virus, HepG2.2.15, read-out: IC50 (HBsAg secretion reduced by 50% compared to the no drug control), HepG2.2.15 cells, culture supernatant, HBsAg CLIA.

With `COCCCOc1cc2c(cc1OC)-c1cc(=O)c(C(=O)O)cn1[C@H](C(C)(C)CO)C2` (single isomer, unassigned) [Example 25, (+)-6-(2-Hydroxy-1,1-dimethyl-ethyl)-10-methoxy-9-(3-methoxypropoxy)-2-oxo-6,7-dihydrobenzo[a]quinolizine-3-carboxylic acid], the IC50 is under 32 nM in the assay on HBV DNA and 2 nM in the assay with HBsAg (setting [1]).

On to `COCCCOc1cc2c(cc1OC)-c1cc(=O)c(C(=O)O)cn1C(C(C)(C)COC)C2` (single isomer, unassigned) [Example 28, (+)-10-Methoxy-6-(2-methoxy-1,1-dimethyl-ethyl)-9-(3-methoxypropoxy)-2-oxo-6,7-dihydrobenzo[a]quinolizine-3-carboxylic acid], for which the results for the IC50 in the assay with HBV DNA and in the assay on HBsAg (setting [1]) were 0.5 nM and 3 nM, respectively.

As to `COCC(C)(C)C1Cc2cc(OCCC3CCCN3C)c(OC)cc2-c2cc(=O)c(C(=O)O)cn21` (centres unmarked) [Example 17, 10-Methoxy-6-(2-methoxy-1,1-dimethyl-ethyl)-9-[2-(1-methylpyrrolidin-2-yl)ethoxy]-2-oxo-6,7-dihydrobenzo[a]quinolizine-3-carboxylic acid], the IC50 in the assay with HBsAg (setting [2]) stood at 537 nM.

Regarding `COCCCOc1cc2c(cc1OC)-c1cc(=O)c(C(=O)O)cn1C(COC)C2` (centres unmarked) [Example 18, 10-Methoxy-6-(methoxymethyl)-9-(3-methoxypropoxy)-2-oxo-6,7-dihydrobenzo[a]quinolizine-3-carboxylic acid], in the assay with HBsAg (setting [2]), the IC50 was 75 nM.

As for `COCCCOc1cc2c(cc1Cl)-c1cc(=O)c(C(=O)O)cn1C(C1CCOCC1)C2` (centres unmarked) [Example 19, 10-Chloro-9-(3-methoxypropoxy)-2-oxo-6-tetrahydropyran-4-yl-6,7-dihydrobenzo[a]quinolizine-3-carboxylic acid], in the assay on HBsAg (setting [2]), the IC50 came out at 88 nM.

As to `COCCCOc1cc2c(cc1OC)-c1cc(=O)c(C(=O)O)cn1C(C(C)(C)COCc1ccccc1)C2` (centres unmarked) [Example 23, 6-(2-Benzyloxy-1,1-dimethyl-ethyl)-10-methoxy-9-(3-methoxypropoxy)-2-oxo-6,7-dihydrobenzo[a]quinolizine-3-carboxylic acid], the IC50 with HBsAg (setting [2]) amounted to 18 nM.

Consider `COCCOc1cc2c(cc1Cl)-c1cc(=O)c(C(=O)O)cn1C(CSC)C2` (centres unmarked) [Example 33, 10-Chloro-9-(2-methoxyethoxy)-6-(methylsulfanylmethyl)-2-oxo-6,7-dihydrobenzo[a]quinolizine-3-carboxylic acid], for which, in the assay on HBsAg (setting [2]), the 50% inhibitory concentration (IC50) was determined as 117 nM.

Turning to `COCCOc1cc2c(cc1Cl)-c1cc(=O)c(C(=O)O)cn1C(CS(C)(=O)=O)C2` (centres unmarked) [Example 34, 10-Chloro-9-(2-methoxyethoxy)-6-(methylsulfonylmethyl)-2-oxo-6,7-dihydrobenzo[a]quinolizine-3-carboxylic acid], the IC50 with HBsAg (setting [2]) was found to be 3380 nM.

As to `CCOc1cc2c(cc1OCC)-c1cc(=O)c(C(=O)O)cn1C(CO)C2` (centres unmarked) [Example 35, 9,10-Diethoxy-6-(hydroxymethyl)-2-oxo-6,7-dihydrobenzo[a]quinolizine-3-carboxylic acid], in the assay on HBsAg (setting [2]), the IC50 is 868 nM.

Take `CCOc1cc2c(cc1OCC)-c1cc(=O)c(C(=O)O)cn1C(COC(C)=O)C2` (centres unmarked) [Example 36, 6-(Acetoxymethyl)-9,10-diethoxy-2-oxo-6,7-dihydrobenzo[a]quinolizine-3-carboxylic acid]: the IC50 in the assay with HBsAg (setting [2]) amounted to 254 nM.

With `CCOc1cc2c(cc1OCC)-c1cc(=O)c(C(=O)O)cn1C(CN)C2` (centres unmarked) [Example 37, 6-(Aminomethyl)-9,10-diethoxy-2-oxo-6,7-dihydrobenzo[a]quinolizine-3-carboxylic acid], in the assay with HBsAg (setting [2]), the IC50 was 1540 nM.

Consider `CCOc1cc2c(cc1OCC)-c1cc(=O)c(C(=O)O)cn1C(CNS(C)(=O)=O)C2` (centres unmarked) [Example 38, 9,10-Diethoxy-6-(methanesulfonamidomethyl)-2-oxo-6,7-dihydrobenzo[a]quinolizine-3-carboxylic acid], for which the IC50 in the assay with HBsAg (setting [2]) came out at 33300 nM.

Consider `CCOc1cc2c(cc1OCC)-c1cc(=O)c(C(=O)O)cn1C(CNC(=O)c1ccccc1)C2` (centres unmarked) [Example 39, 6-(Benzamidomethyl)-9,10-diethoxy-2-oxo-6,7-dihydrobenzo[a]quinolizine-3-carboxylic acid], for which the IC50 with HBsAg (setting [2]) was 19800 nM.

As to `CCOc1cc2c(cc1OCC)-c1cc(=O)c(C(=O)O)cn1C(CN1CCCC1=O)C2` (centres unmarked) [Example 40, 9,10-Diethoxy-2-oxo-6-[(2-oxopyrrolidin-1-yl)methyl]-6,7-dihydrobenzo[a]quinolizine-3-carboxylic acid], in the assay on HBsAg (setting [2]), the IC50 came to 7450 nM.

For `CCOc1cc2c(cc1OCC)-c1cc(=O)c(C(=O)O)cn1C(CN(C)C(C)=O)C2` (centres unmarked) [Example 41, 6-[[Acetyl(methyl)amino]methyl]-9,10-diethoxy-2-oxo-6,7-dihydrobenzo[a]quinolizine-3-carboxylic acid], the IC50 with HBsAg (setting [2]) turned out to be 4860 nM.

`CCOc1cc2c(cc1OCC)-c1cc(=O)c(C(=O)O)cn1C(CN1CCCC1)C2` (centres unmarked) [Example 42, 9,10-Diethoxy-2-oxo-6-(pyrrolidin-1-ylmethyl)-6,7-dihydrobenzo[a]quinolizine-3-carboxylic acid]: the IC50 in the assay on HBsAg (setting [2]) is 216 nM.

On to `CCOc1cc2c(cc1OCC)-c1cc(=O)c(C(=O)O)cn1C(CN(C)C)C2` (centres unmarked) [Example 43, 6-[(Dimethylamino)methyl]-9,10-diethoxy-2-oxo-6,7-dihydrobenzo[a]quinolizine-3-carboxylic acid], for which, in the assay on HBsAg (setting [2]), the IC50 came to 134 nM.

For the compound `COCC(C)(C)C1Cc2cc(OCCCn3cccn3)c(OC)cc2-c2cc(=O)c(C(=O)O)cn21` (centres unmarked) [Example 44, 10-Methoxy-6-(2-methoxy-1,1-dimethyl-ethyl)-2-oxo-9-(3-pyrazol-1-ylpropoxy)-6,7-dihydrobenzo[a]quinolizine-3-carboxylic acid], in the assay with HBsAg (setting [2]), the IC50 turned out to be 190 nM.

As to `CCc1cc2c(cc1OC)-c1cc(=O)c(C(=O)O)cn1C(C(C)(C)COC)C2` (centres unmarked) [Example 45, 9-Ethyl-10-methoxy-6-(2-methoxy-1,1-dimethyl-ethyl)-2-oxo-6,7-dihydrobenzo[a]quinolizine-3-carboxylic acid], the IC50 with HBsAg (setting [2]) worked out at 74 nM.

Turning to `COCC(C)(C)C1Cc2cc(N3CCCC3)c(OC)cc2-c2cc(=O)c(C(=O)O)cn21` (centres unmarked) [Example 46, 10-Methoxy-6-(2-methoxy-1,1-dimethyl-ethyl)-2-oxo-9-pyrrolidin-1-yl-6,7-dihydrobenzo[a]quinolizine-3-carboxylic acid], the IC50 with HBsAg (setting [2]) is 9 nM.

In the case of `COCC(C)(C)C1Cc2cc(C#N)c(OC)cc2-c2cc(=O)c(C(=O)O)cn21` (centres unmarked) [Example 47, 9-Cyano-10-methoxy-6-(2-methoxy-1,1-dimethyl-ethyl)-2-oxo-6,7-dihydrobenzo[a]quinolizine-3-carboxylic acid], in the assay with HBsAg (setting [2]), the IC50 came to 230 nM.

In general, IC50 refers to the concentration needed to halve the response being measured.
